In data set [1] the test system is epididymal white adipose tissue adipocytes. The experiment in a line: Lipolytic activity in vitro on white adipose tissue (WAT) adipocytes, release of free fatty acids. To be noted: Rattus norvegicus, Adipocyte; compound 10^-6 M; per cent of noradrenaline effect at 5.10^-6 M (maximal effect); 37° C., 1 hour, pH 7.4. In kind it is cell-based. The text has this:
(§1) More particularly, the compounds of the present invention show a remarkable lipolytic activity in mammals in the tests predictive of said activity, such as in the test "in vitro" on the brown adipose tissue (BAT) and on the white adipose tissue (WAT) and in the test "in vivo", based upon the thermogenesis in the rat. More particularly, in the test "in vitro" male rats, each weighing 100-125 g, are sacrificed and the adipocytes of the interscapular brown adipose tissue and those of the epididymal white adipose tissue are dissected out, according to the method of M. Rodbell, J. Biol. Chem. 1967, 242, 5744-5750 and separately treated as follows. The adipocytes are incubated with the compound to be tested at a temperature of 37° C. for an hour in Phosphate Krebs-Ringer-(4%) albumine medium at pH 7.4. The long chain fatty acids that are released in the medium are determinated by the method reported by D.I. Trout and al., J. Lip. Res. 1960, 1, 199-202, and compared with the amount of the triglycerides present in the adipocytes, determined by the method of E. Van Handel and al., J. Lab. Clin. Med., 1957, 50, 152-157. The results obtained for representative compounds of the present invention are shown in TABLE I, where the lipolytic activity of the compounds at the dose of 10^-6 M, measured as release of free fatty acids (μEq), is expressed as per cent of the noradrenaline effect at the dose of 5.10^-6 M (maximal effect on both BAT and WAT).

For data set [2], the system named is adipocytes of the interscapular brown adipose tissue. Put plainly: Lipolytic activity in vitro on brown adipose tissue (BAT) adipocytes, release of free fatty acids. In kind it is cell-based. To be noted: Rattus norvegicus, Adipocyte; compound 10^-6 M; per cent of noradrenaline effect at 5.10^-6 M (maximal effect); 37° C., 1 hour, pH 7.4.
Source text: as §1

For the next data set, the system named is mice. The experiment in a line: Acute toxicity in mice. In kind it is in vivo, mouse. To be noted: oral dose up to 200 mg/kg.
For a further data set, the system named is interscapular BAT. Put plainly: Activity on brown adipose tissue thermogenesis in vivo in anaesthetized rats. Also noted: species or system rat. To be noted: 7.5 mg/kg intraperitoneally. Here is the method:
In the test "in vivo", the activity on brown adipose tissue thermogenesis is determined by the method reported by P. J. Wellman, Research Communication in Chemical Pathology and Pharmacology 1983, 41, 173-176.
The anaesthesied rats are treated intraperitoneally with the vehicle and 7.5 mg/kg of the compound to be tested. The interscapular BAT and rectal temperatures are recorded 10, 20 and 30 minutes after the injection.

Structures can show the parent of a compound that is named as a salt.

Take `Oc1ccc2c(c1)CC(NC[C@H](O)c1ccccc1)CC2` (single isomer, unassigned; (+)) [SR 58375A, hydrochloride]: the activation at 1 µM was found to be 97% in data set [1] and 100% in data set [2].

Consider `CCOC(=O)COc1ccc2c(c1)CC(NCC(O)c1cccc(Cl)c1)CC2.O=C(O)C(=O)O` (stereo not shown) [SR 58380A, 2-[(7-carbethoxymethoxy-1,2,3,4-tetrahydronaphth-2-yl)amino]-1-(3-chlorophenyl)ethanol oxalate], for which the activation at 1 µM is 90% in data set [1] and 96% in data set [2]. The mortality entry in the data set on mice was “do not cause any mortality”.

Regarding `Cl.Oc1ccc2c(c1)CC(NCC(O)c1cccc(Cl)c1)CC2` (stereo not shown) [SR 58339A, 2-[(7-hydroxy-1,2,3,4-tetrahydronaphth-2-yl)amino]-1-(3-chlorophenyl)-ethanol hydrochloride], the figures for the activation at 1 µM in data set [1] and in data set [2] were 92% and 103%, respectively. In addition, the mortality result with mice is “do not cause any mortality”.

`COc1ccc2c(c1)CC(NCC(O)c1ccccc1)CC2` (stereo not shown) [SR 58279A, 2-[(7-methoxy-1,2,3,4-tetrahydronaphth-2-yl)amino]-1-phenylethanol hydrochloride]: the activation at 1 µM turned out to be 30% in data set [1] and 50% in data set [2].

Regarding `Oc1ccc2c(c1)CC(NCC(O)c1ccccc1)CC2` (stereo not shown) [SR 58306A, 2-[(7-hydroxy-1,2,3,4-tetrahydronaphth-2-yl)amino]-1-phenylethanol hydrochloride], the results for the activation at 1 µM in data set [1] and in data set [2] were 78% and 80%, respectively.

Take `Oc1ccc2c(c1)CC(NC[C@H](O)c1ccccc1)CC2` (stereo partly drawn) [SR 58365A, (1R,2'RS)-2-[(7-hydroxy-1,2,3,4-tetrahydronaphth-2-yl)amino]-1-phenylethanol hydrochloride]: the activation at 1 µM in data set [1] was 78%; in data set [2], 96%.

As for `COc1ccc2c(c1)CC(NCC(O)c1cccc(Cl)c1)CC2` (stereo not shown) [SR 58338A, 2-[(7-methoxy-1,2,3,4-tetrahydronaphth-2-yl)amino]-1-(3-chloropheny)ethanol hydrochloride], the activation at 1 µM in data set [1] was 89%; in data set [2], 77%.

In the case of `Oc1ccc2c(c1)CC(NCC(O)c1ccccc1)CC2` (stereo not shown) [SR 58306, 2-[(7-hydroxy-1,2,3,4-tetrahydronaphth-2-yl)amino]-1-phenylethanol], the “ΔT, average difference between interscapular BAT temperature and rectal temperature” value was 0.60 ± 0.10 °C with interscapular BAT (10' after injection, anaesthetized rats (vehicle 0.06 ± 0.04)); 0.90 ± 0.10 °C with interscapular BAT (20' after injection, anaesthetized rats (vehicle 0.10 ± 0.04)); 0.92 ± 0.08 °C in the data set with interscapular BAT (30' after injection, anaesthetized rats (vehicle 0.14 ± 0.05)).

Source of the values: patent US4707497A, “Phenylethanolaminotetralines, a process for their preparation and pharmaceutical compositions containing them” (Sanofi, priority 1985, dated 1987).
